Reference: patent US8178135B2, “Aqueous solution of conophylline and/or conophyllidine” (Keio University, priority 2006, dated 2012)

Legend:
[1] = Dissolution of dried ethanol extract in citric acid / citrate buffer at pH 2.6 to 6.0 (HPLC); format: physicochemical
Procedure: (§1) Conophylline and conophyllidine were analyzed by reversed phase HPLC in a high pressure gradient mode using a YMC-Pack Pro C18 RS column (4.6 mm×250 mm; manufactured by YMC Co., Ltd.). The mobile phase consisted of 1% by volume acetic acid as solvent A and acetonitrile as solvent B. The gradient program was set to start with 10% B at a flow rate of 1 ml/min, and the portion of B was increased linearly to 55% over 25 min. The column temperature was 40° C. and UV absorption was monitored at the wavelength of 335 nm. The reference solutions of conophylline and conophyllidine were prepared immediately before measurement and their concentrations were calculated from the absorbance at 335 nm of the solutions prepared.
After some of the dried leaves obtained in Example 1 were pulverized in a mill, 10 g of the pulverized product was extracted with 100 ml of 60% ethanol. Then, the extract was centrifuged and supernatant containing conophylline and conophyllidine was recovered. […] The supernatant was dispensed in 3 ml aliquots into 5 centrifuge tubes and then concentrated to dryness by centrifugation. A buffer (citric acid aqueous solution or sodium citrate buffer) at pH 2.6 to pH 6.0 prepared by appropriately mixing 0.1 M citric acid solution and 0.1 M sodium citrate solution was added at 0.1 ml per tube. After 10 min vigorous stirring, the supernatant was centrifugated again and diluted 10-fold with 50% ethanol. After the dilution, insoluble matter was removed by filtration with a 0.2-μm membrane filter and the contents of conophylline and conophyllidine in the filtrated supernatant were measured by HPLC (Table 2).

[2] = Amounts in lysate, acid extract and fractions after neutralization to pH 6.0, centrifugation and ultrafiltration (HPLC); format: physicochemical; settings: for amount in Aqueous extract: clarified 0.1 N hydrochloric acid extract; for amount in Lysate: distilled water, 50° C. 30 min, centrifuged supernatant; for amount in Centrifuged supernatant: extract adjusted to pH 6.0, 1,500×g 5 min; for amount in Centrifuged precipitate: extract adjusted to pH 6.0, precipitate dissolved in equal volume of 50% ethanol; for amount in UF filtrate: pH 6.0, passed ultrafiltration membrane; for amount in UF filtrate / amount in UF debris: cut-off 50,000; for amount in UF debris: pH 6.0, retained on ultrafiltration membrane
Procedure: as §1
200 ml of 0.1 N hydrochloric acid was added to 4 g of pulverized product of the dried leaves obtained by the same method as in Example 2, which was then extracted at 50° C. for 30 min. After the debris was removed by paper filtration, the extract was ultrafiltrated with pencil-type module SLP-0053 manufactured by Asahi Kasei Corporation (molecular weight cut-off 10,000) and 165 ml of filtrate was recovered. The pH of the filtrate was adjusted by gradually adding sodium carbonate aqueous solution and the precipitate formed was recovered by centrifugation. The precipitate was then vacuum-evaporated to yield 70 mg of dried product. This dried product contained 9.8 μg of conophylline and 13.3 μg of conophyllidine per mg
The extract was prepared and clarified by removing debris by paper filtration in the same method as in Example 5. Then 100 ml of the clarified extract was adjusted to pH 6.0 with sodium hydroxide aqueous solution. This solution was centrifuged (1,500×g, 5 min) to separate into a supernatant (centrifuged supernatant) and precipitate (centrifuged precipitate). Next, the precipitate was dissolved in an equal volume of 50% ethanol, and the amounts of the active ingredients (conophylline and conophyllidine) in the clarified extract, the centrifuged supernatant, and the centrifuged precipitate were measured by HPLC. Further, the amounts of the active ingredient in the supernatant (lysate) obtained by adding 200 ml of distilled water to 4 g of the pulverized product of the dried leaves of Tabernaemontana divaricata and heating at 50° C. for 30 min, followed by centrifugation at 1,500×g for 5 min were also measured by HPLC.
Further, a sodium hydroxide aqueous solution was added to 1 ml of the above-described clarified extract to adjust pH to 6.0. This extract was treated with an ultrafiltration membrane USY-5 (molecular weight cut-off: 50,000), manufactured by Advantech Co., Ltd. and the filtrate which had passed through the membrane was recovered (UF filtrate). At the same time, the remaining component on the membrane was dissolved and recovered using 1 ml of 50% ethanol (UF debris), and the amounts of the active ingredients in the UF filtrate and UF debris were measured by HPLC (Table 5). As a result, no amount of conophylline or conophyllidine was not detected in the filtrate at all; almost all was present in the fraction which had not permeated through the ultrafiltration membrane.

[3] = Blood concentrations after oral administration of acetic acid extract or dried pulverized leaves to healthy rats; format: in vivo, rat
Procedure: Dried leaves of Tabernaemontana divaricata were pulverized with a home mill, 1 g of the pulverized product was homogenized in 20 ml of 0.3 M acetic acid solution, and the active ingredient was extracted by stirring at 50° C. for 30 min. The supernatant was recovered by centrifugation and concentrated to dryness to obtain 0.3 g of powder (acetic acid extract). This powder contained conophylline and conophyllidine at 1.0 mg/g and 0.8 mg/g, respectively.
Further, 1 g of pulverized leaves was homogenized in 20 ml of distilled water and then concentrated to dryness to obtain 1 g of product (dried pulverized leaves). The amounts of the active ingredients of conophylline and conophyllidine were 0.40 mg/g and 0.35 mg/g, respectively.
Next, 0.2 g of the acetic acid extract and 0.5 g of the dried pulverized leaves were separately suspended in 5 ml of water for injection. These suspensions were administered to 5-week old healthy rats (Crj:CD (SD) IGS, SPF, male) using a sonde by forced oral administration at a dose of 5 ml/kg body weight (n=2 per suspension). Blood was taken from the orbital venous plexus of each rat before oral administration, 1.5, 3, 6, 12, and 24 hours post administration and serum was recovered by centrifugation. The concentrations of conophylline and conophyllidine in the blood were measured by precipitating protein by addition of 2 volumes of acetonitrile to the serum followed by HPLC analysis of the supernatant (Table 6).

[4] = Concentration dissolved after neutralization with pectin or sodium polyacrylate (partially purified by reversed phase column); format: physicochemical; settings: for concentration in solution: Control: not neutralized
Procedure: Crude extract I (250 mg) obtained in Example 1 was dissolved in 5 ml of ethanol. Water was added to this solution in a total volume of 50 ml, which was passed through a glass column packed with about 5 ml of ODS resin (DM1020T, manufactured by Fuji Silysia Chemical Ltd.). After unadsorbed matter was removed by washing the column with 10 ml of distilled water, the adsorbed component was eluted with 10 ml of ethanol. Then, after the solvent was removed by centrifugal concentration, the concentrate was dissolved in 5 ml of 0.1 N hydrochloric acid and the solution was dispensed in 0.5 ml aliquots into test tubes. Then, 10 μl, 100 μl, or 1000 μl of a 0.2% aqueous solution of pectin or 0.2% aqueous solution of sodium polyacrylate was added to the aliquots. The solutions were treated in the same way as in Example 11 and the concentrations of conophylline and conophyllidine in the supernatants were measured.

[5] = pH 6.0, Sodium polyacrylate 10 μg/ml
[6] = pH 6.0, Sodium polyacrylate 100 μg/ml

| SMILES | content dissolved in supernatant ([1]; Citrate buffer solution, pH 3) | content dissolved in supernatant ([1]; Citrate buffer solution, pH 4) | content dissolved in supernatant ([1]; Citrate buffer solution, pH 5) | content dissolved in supernatant ([1]; Citrate buffer solution, pH 6) | content dissolved in supernatant ([1]; Citric acid, pH 2.6) | amount in Aqueous extract [2] | amount in Lysate [2] | amount in Centrifuged supernatant [2] | amount in Centrifuged precipitate [2] | amount in UF filtrate [2] | amount in UF debris [2] | concentration in solution [4] | concentration in supernatant after neutralization ([4]; pH 6.0, Pectin 10 μg/ml) | concentration in supernatant after neutralization ([4]; pH 6.0, Pectin 100 μg/ml) | concentration in supernatant after neutralization ([4]; pH 6.0, Pectin 1000 μg/ml) | concentration in supernatant after neutralization [4, 5] | concentration in supernatant after neutralization [4, 6] | concentration in supernatant after neutralization ([4]; pH 6.0, additive None) | other results |
| --- | --- | --- | --- | --- | --- | --- | --- | --- | --- | --- | --- | --- | --- | --- | --- | --- | --- | --- | --- |
| CC[C@@]12CC(C(=O)OC)=C3Nc4cc5c(cc4[C@@]34CCN(C[C@H]3O[C@H]31)[C@@H]24)[C@@H]1[C@H](O5)[C@@H](O)[C@@]2(CC)CC(C(=O)OC)=C3Nc4c(cc(O)c(OC)c4OC)[C@@]34CCN1[C@@H]24 [Conophylline, conophylline] | 0.866 mg/mL | 0.093 mg/mL | 0.0018 mg/mL | 0.0009 mg/mL | 1.072 mg/mL | 2.62 µg/mL | 0.04 µg/mL | 2.22 µg/mL | 0.48 µg/mL | 0.00 µg/mL | 2.39 µg/mL | 11.28 µg/mL | 0.27 µg/mL | 0.55 µg/mL | 2.59 µg/mL | 0.24 µg/mL | 5.15 µg/mL | 0.19 µg/mL | time at which blood concentration reached its maximum ([3]; male, Crj:CD (SD) IGS, rat, in vivo, po): 1.5 h |
| CC[C@@]12C=CCN3CC[C@]4(C(=C(C(=O)OC)C1)Nc1cc5c(cc14)[C@H]1[C@@H](O5)[C@H](O)[C@]4(CC)CC(C(=O)OC)=C5Nc6c(cc(O)c(OC)c6OC)[C@@]56CCN1[C@H]46)[C@H]32 (stereo in doubt) [Conophyllidine, conophyllidine] | 0.612 mg/mL | 0.055 mg/mL | 0.0017 mg/mL | 0.0010 mg/mL | 0.786 mg/mL | 2.01 µg/mL | 0.02 µg/mL | 1.41 µg/mL | 0.30 µg/mL | 0.00 µg/mL | 2.19 µg/mL | 16.08 µg/mL | 0.13 µg/mL | 0.57 µg/mL | 2.74 µg/mL | 0.17 µg/mL | 6.99 µg/mL | 0.16 µg/mL | blood concentration ([3]; Dried pulverized leaves oral, healthy rats (animals 3, 4), 6 h): 0.054 µg/mL; blood concentration ([3]; Dried pulverized leaves oral, healthy rats (animals 3, 4), 12 h): 0.013 µg/mL; blood concentration ([3]; Dried pulverized leaves oral, healthy rats (animals 3, 4), 24 h): 0.002 µg/mL; time at which blood concentration reached its maximum ([3]; acetic acid extract oral, rats): 1.5 h; concentration at 6 h ([3]; male, Crj:CD (SD) IGS, rat, in vivo, po, 0.5 g/kg, Dried pulverized leaves oral, healthy rats (animals 3, 4), 6 h): 28 ng/mL; concentration at 12 h ([3]; male, Crj:CD (SD) IGS, rat, in vivo, po, 0.5 g/kg, Dried pulverized leaves oral, healthy rats (animals 3, 4), 12 h): 8 ng/mL; concentration at 24 h ([3]; male, Crj:CD (SD) IGS, rat, in vivo, po, 0.5 g/kg, Dried pulverized leaves oral, healthy rats (animals 3, 4), 24 h): 1 ng/mL |
